Data as given in patent US20250213701A1, “MEDICAMENT FOR TREATING HUMAN TUMOR BASED ON ERF3A-TARGETING PROTEOLYSIS MECHANISM” (SUZHOU DEGEN BIO-MEDICAL CO., LTD., priority 2022, published 2025).

Legend:
[1] = test system: KATO III cells; test: Anti-proliferative toxicity of C63 in tumor cell lines (CCK8): KATO III; type: cell-based; settings: Homo sapiens, 72 h, 3 days, read-out: Inhibition rate
Procedure: (§1) Example 83: Detection of Anti-Proliferative Toxicity of C63 in Some Tumor Cell Lines
KATOIII cells (purchased from the Cell Bank of the Chinese Academy of Sciences, Cat. No. TCHu229) were subcultured in a culture medium (IMDM medium+1% penicillin-streptomycin dual-antibiotic solution+10% fetal bovine serum) in an incubator at 5% carbon dioxide and 37° C.
KATO III cells were seeded at 8000 cells/well (90 μL) on a 96-well plate and cultured for 24 h.
(§2) 10 mM compound stock solutions were prepared in DMSO.
(§3) The compound stock solution was diluted with DMSO to give DMSO solutions 1-9 at concentrations of 0 μM, 2500 μM, 500 μM, 100 μM, 20 μM, 4 μM, 0.8 μM, 0.16 μM, and 0.032 μM.
(§4) 2 μL of each of solutions 1-9 was added to 98 μL of the medium to give mixed solutions 11-19 of the compound and the medium.
(§5) 10 μL of each of solutions 11-19 was added to the above cell seed solution to give a total volume of 100 μL (90 μL+10 μL).
(§6) The concentrations of the compound in the wells were 0 μM, 5.0 μM, 1.0 μM, 0.2 μM, 0.04 μM, 0.008 μM, 0.0016 μM, 0.00032 μM, and 0.000064 μM. All concentrations were in triplicate.
(§7) After the above-treated cells were cultured for 3 days, 10 μL of the CCK8 solution (DOJINDO, Cat. No. PF725) was added to each well. The plate was incubated in an incubator at 37° C. for 1-4 h and then detected on a microplate reader for the reading at 450 nm.

[2] = test system: U251 cells; test: Anti-proliferative toxicity of C63 in tumor cell lines (CCK8): U251; type: cell-based; settings: Homo sapiens, U-251, 72 h, 3 days, read-out: Inhibition rate
Procedure: as §1
U251 cells (purchased from the Cell Bank of the Chinese Academy of Sciences, Cat. No. TCHu58) were subcultured in a culture medium (DMEM medium+1% penicillin-streptomycin dual-antibiotic solution+10% fetal bovine serum) in an incubator at 5% carbon dioxide and 37° C.
U251 cells were seeded at 2000 cells/well (90 μL) on a 96-well plate and cultured for 24 h.
as §2, §3, §4, §5, §6, §7

Compound `C[C@]12C=CC(=O)N[C@@H]1CC[C@@H]1[C@@H]2CC[C@]2(C)[C@@H](C(=O)Nc3cccc(N[C@@H]4CCC[C@@H](Nc5cccc6c5C(=O)N([C@H]5CCC(=O)NC5=O)C6=O)C4)c3)CC[C@@H]12` [C63, N-(3-(N—(N-(4-(2-(3S-(2,6-dioxopiperidine))-isoindole-1,3-dione))-1R,3R-cyclohexanediamine))phenyl)-3-oxo-4-aza-5α-androst-1-ene-17β-carboxamide] has an inhibition at 64 pM ([1]; 0.000064 μM) of 1.09%, an inhibition at 0.00032 µM ([1]; 0.000320 μM) of 2.17% and an inhibition at 0.0016 µM ([1]; 0.001600 μM) of 15.9%. For the same compound, the inhibition at 0.008 µM ([1]; 0.008000 μM) was 51.5%, the inhibition at 0.04 µM ([1]; 0.040000 μM) was 67.9% and the inhibition at 0.2 µM ([1]; 0.200000 μM) was 74.8%. The inhibition at 1 µM ([1]; 1.000000 μM) was 74.7%, the inhibition at 5 µM ([1]; 5.000000 μM) was 72.3% and the inhibition at 64 pM ([2]; 0.000064 μM) was 22%. The inhibition at 0.00032 µM ([2]; 0.000320 μM) was 21.7%, the inhibition at 0.0016 µM ([2]; 0.001600 μM) was 53.4% and the inhibition at 0.008 µM ([2]; 0.008000 μM) was 67.8%. It also gave an inhibition at 0.04 µM ([2]; 0.040000 μM) of 69%, an inhibition at 0.2 µM ([2]; 0.200000 μM) of 71.7% and an inhibition at 1 µM ([2]; 1.000000 μM) of 72.2%. It also gave an inhibition at 5 µM ([2]; 5.000000 μM) of 72.2%.
